The values below come from patent US10975037B2 (priority 2018, dated 2021).

Where two headings read alike, the source gives them in different places. Marks after values point to notes of the source that are not given here.

Assay [1] has as its target human RORγt ligand binding domain (RORγt LBD) (Homo sapiens (Human), UniProt P51449). Kind of assay: RORγt ThermoFluor® assay (thermal shift binding). The method in brief: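 Thermal shift with 0.065 mg/mL RORγt LBD and 60 μM 1,8-ANS in 100 mM Hepes pH 7.0, 10 mM NaCl, 2.5 mM GSH, 0.002% Tween-20.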
Assay [2] concerns the target full-length human RORγt (Homo sapiens (Human), UniProt P51449). Description: RORγt (full-length human) reporter assay, conditions A or B, HEK293T cells. The conditions noted are these: for inhibition at 2 µM: 2 μM compound concentration. In kind it is cell-based. In a few lines: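 After 16–20 h, dual firefly/Renilla luciferase luminescence was read. Firefly signal was normalized to DMSO and saturating reference compound, then to Renilla, and fitted for IC50; % inhibition is versus DMSO.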

The mark [3] stands for this setting: read-out: ThermoFluor® Assay, Kd.
Setting [4] is: HEK-293T, read-out: RORγt (FL) Reporter Assay A or B, % inhibition.
Setting [5] is: RORγt (FL) Reporter Assay A or B, IC50, HEK293T cells.
Setting [6] is: HEK293T cells, read-out: RORγt (FL) Reporter Assay A or B, IC50.
The mark [7] stands for this setting: HEK-293T, 3 μM compound concentration (footnote *), read-out: RORγt (FL) Reporter Assay A or B, % inhibition.
Where [8] appears, read: HEK-293T, 0.33 μM compound concentration (footnote *****), read-out: RORγt (FL) Reporter Assay A or B, % inhibition.

Chain of full-length human RORγt (P51449 other isoform, or with tags, fused parts or gaps): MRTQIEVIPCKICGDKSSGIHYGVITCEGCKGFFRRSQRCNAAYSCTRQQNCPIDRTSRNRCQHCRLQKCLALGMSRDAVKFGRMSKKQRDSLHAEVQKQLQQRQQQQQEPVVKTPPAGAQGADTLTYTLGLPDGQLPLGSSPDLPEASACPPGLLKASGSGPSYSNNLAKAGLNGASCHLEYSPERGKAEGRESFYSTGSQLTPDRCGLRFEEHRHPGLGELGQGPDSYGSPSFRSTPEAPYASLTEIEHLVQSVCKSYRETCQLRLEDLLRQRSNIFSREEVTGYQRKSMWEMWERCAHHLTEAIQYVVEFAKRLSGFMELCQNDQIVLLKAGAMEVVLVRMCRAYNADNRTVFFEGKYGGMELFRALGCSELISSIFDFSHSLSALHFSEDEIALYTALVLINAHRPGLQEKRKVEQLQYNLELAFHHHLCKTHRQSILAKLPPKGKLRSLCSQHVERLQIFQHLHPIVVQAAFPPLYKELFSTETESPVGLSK
Chain of human RORγt ligand binding domain (RORγt LBD) (P51449 other isoform, or with tags, fused parts or gaps): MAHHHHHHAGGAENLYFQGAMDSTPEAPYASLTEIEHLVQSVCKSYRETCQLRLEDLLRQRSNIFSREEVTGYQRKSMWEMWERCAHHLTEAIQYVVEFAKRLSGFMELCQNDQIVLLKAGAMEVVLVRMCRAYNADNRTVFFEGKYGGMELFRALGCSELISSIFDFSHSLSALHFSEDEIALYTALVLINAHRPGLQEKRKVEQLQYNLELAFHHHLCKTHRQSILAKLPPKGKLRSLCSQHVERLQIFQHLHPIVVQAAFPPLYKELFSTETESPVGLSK

With `CCn1nc(C(=O)NC[C@H]2CC[C@H](S(C)(=O)=O)CC2)c(Cl)c1-c1c(F)cc(N[C@H](C)C(F)(F)F)cc1F` [Example 196, 4-Chloro-5-(2,6-difluoro-4-(((R)-1,1,1-trifluoropropan-2-yl)amino)phenyl)-1-ethyl-N-(((1r,4R)-4-(methylsulfonyl)cyclohexyl)methyl)-1H-pyrazole-3-carboxamide], in assay [1] (setting [3]), the equilibrium dissociation constant (Kd) is 5.4 nM. In addition, the inhibition at 2 µM in assay [2] (setting [4]) was 101%. This compound also showed an IC50 in assay [2] (setting [5]) of 20 nM.
In the case of `CCn1nc(C(=O)NC[C@]2(O)CC[C@@H](S(C)(=O)=O)CC2)c(C(F)(F)F)c1-c1ccc(N[C@H](C)C(F)(F)F)cc1OC` [Example 217, 1-Ethyl-N-(((1s,4S)-1-hydroxy-4-(methylsulfonyl)cyclohexyl)methyl)-5-(2-methoxy-4-(((R)-1,1,1-trifluoropropan-2-yl)amino)phenyl)-4-(trifluoromethyl)-1H-pyrazole-3-carboxamide], in assay [1] (setting [3]), the Kd is 17 nM. Further, in assay [2] (1 μM compound concentration (footnote ***)), the “RORγt (FL) Reporter Assay A or B, % inhibition” value is listed as 104*** %. The half-inhibitory concentration (IC50) in assay [2] (setting [6]) stood at 13 nM.
In the case of `CCn1nc(C(=O)NC[C@]2(O)CC[C@@H](S(C)(=O)=O)CC2)c(Cl)c1-c1ccc(CCC(C)C)cc1OC` [Example 75, 4-Chloro-1-ethyl-N-(((1s,4s)-1-hydroxy-4-(methylsulfonyl)cyclohexyl)methyl)-5-(4-isopentyl-2-methoxyphenyl)-1H-pyrazole-3-carboxamide], the Kd in assay [1] (setting [3]) turned out to be 0.88 nM. Besides, the inhibition at 2 µM in assay [2] (setting [4]) is 62%. In addition, the IC50 in assay [2] (setting [5]) came to 25 nM.
As to `CCn1nc(C(=O)NC[C@H]2CC[C@H](S(C)(=O)=O)CC2)c(Cl)c1-c1ccc(CC(C)(C)C(F)(F)F)cc1C` [Example 182, 4-Chloro-1-ethyl-5-(2-methyl-4-(3,3,3-trifluoro-2,2-dimethylpropyl)phenyl)-N-(((1r,4r)-4-(methylsulfonyl)cyclohexyl)methyl)-1H-pyrazole-3-carboxamide], in assay [1] (setting [3]), the Kd was 1 nM. In addition, the inhibition at […] in assay [2] (HEK-293T, 0.22 μM compound concentration (footnote *******), read-out: RORγt (FL) Reporter Assay A or B, % inhibition) was determined as 81%. In assay [2] (setting [5]), the IC50 worked out at 19 nM.
With `CCn1nc(C(=O)NC[C@]2(O)CC[C@@H](S(C)(=O)=O)C[C@H]2O)c(Cl)c1-c1ccc(C[C@@H](C)C(F)(F)F)cc1OC(F)F` (stereo in doubt) [Example 137, 4-Chloro-5-(2-(difluoromethoxy)-4-((R*)-3,3,3-trifluoro-2-methylpropyl)phenyl)-N-(((1R*,2R*,4R*)-1,2-dihydroxy-4-(methylsulfonyl)cyclohexyl)methyl)-1-ethyl-1H-pyrazole-3-carboxamide], the dissociation constant (Kd) in assay [1] (ThermoFluor® Assay, Kd) was found to be 2 nM. In assay [2] (setting [7]), the inhibition at 3 µM turned out to be 102%. For the same compound, the IC50 in assay [2] (setting [5]) was 4.8 nM.
Regarding `CCn1nc(C(=O)NC[C@H]2CC[C@H](S(C)(=O)=O)C[C@@H]2O)c(Cl)c1-c1ccc(CC(C)(C)C(F)(F)F)cc1OC(F)F` (single isomer, unassigned) [Example 21, 4-Chloro-5-(2-(difluoromethoxy)-4-(3,3,3-trifluoro-2,2-dimethylpropyl)phenyl)-1-ethyl-N-(((1R*,2S*,4S*)-2-hydroxy-4-(methylsulfonyl)cyclohexyl)methyl)-H-pyrazole-3-carboxamide], the Kd in assay [1] (ThermoFluor® Assay, Kd) worked out at 0.37 nM. The inhibition at […] in assay [2] (setting [8]) was 103%. In assay [2] (setting [5]), this compound showed an IC50 of 3.6 nM.
On to `CCn1nc(C(=O)NC[C@H]2CC[C@H](S(C)(=O)=O)CC2)c(C)c1-c1ccc(CC(C(F)(F)F)C(F)(F)F)cc1OC(F)F` [Example 87, 5-(2-(Difluoromethoxy)-4-(3,3,3-trifluoro-2-(trifluoromethyl)propyl)phenyl)-1-ethyl-4-methyl-N-(((1r,4r)-4-(methylsulfonyl)cyclohexyl)methyl)-1H-pyrazole-3-carboxamide], for which the Kd in assay [1] (setting [3]) was 0.14 nM. Further, in assay [2] (HEK-293T, 0.07 μM compound concentration (footnote *********), read-out: RORγt (FL) Reporter Assay A or B, % inhibition), the inhibition at 0.07 µM turned out to be 100%. This compound also gave an IC50 in assay [2] (setting [5]) of 3 nM.
On to `CCn1nc(C(=O)NC[C@]2(O)CC[C@@H](S(C)(=O)=O)CC2)c(Cl)c1-c1ccc(CC(C)(C)CC(F)(F)F)cc1OC(F)F` [Example 90, 4-Chloro-5-(2-(difluoromethoxy)-4-(4,4,4-trifluoro-2,2-dimethylbutyl)phenyl)-1-ethyl-N-(((1s,4s)-1-hydroxy-4-(methylsulfonyl)cyclohexyl)methyl)-1H-pyrazole-3-carboxamide], for which the Kd in assay [1] (setting [3]) is 0.51 nM. Further, the inhibition at […] in assay [2] (setting [8]) stood at 91%. Further, the IC50 in assay [2] (setting [5]) was determined as 9.6 nM.
Consider `CCn1nc(C(=O)NC[C@H]2CC[C@H](S(C)(=O)=O)CC2)c(Cl)c1-c1ccc(N[C@H](C)C(F)(F)F)cc1Cl` [Example 176, 4-Chloro-5-(2-chloro-4-(((R)-1,1,1-trifluoropropan-2-yl)amino)phenyl)-1-ethyl-N-(((1r,4R)-4-(methylsulfonyl)cyclohexyl)methyl)-1H-pyrazole-3-carboxamide], for which the Kd in assay [1] (setting [3]) was determined as 3.8 nM. Besides, the inhibition at 0.67 µM in assay [2] (HEK-293T, 0.67 μM compound concentration (footnote ****), read-out: RORγt (FL) Reporter Assay A or B, % inhibition) was found to be 102%. In assay [2] (setting [5]), this compound gave an IC50 of 18 nM.
For the compound `COCCn1nc(C(=O)NC[C@]2(O)CC[C@@H](S(C)(=O)=O)CC2)c(C)c1-c1ccc(CC(C)(C)C(F)(F)F)cc1OC(F)F` [Example 150, 5-(2-(Difluoromethoxy)-4-(3,3,3-trifluoro-2,2-dimethylpropyl)phenyl)-N-(((1s,4s)-1-hydroxy-4-(methylsulfonyl)cyclohexyl)methyl)-1-(2-methoxyethyl)-4-methyl-1H-pyrazole-3-carboxamide], the Kd in assay [1] (setting [3]) turned out to be 1.9 nM. Further, the inhibition at 2 µM in assay [2] (setting [4]) stood at 95%. This compound also came in with an IC50 in assay [2] (setting [5]) of 13 nM.
`C[C@H](Cc1ccc(-c2c(Cl)c(C(=O)NC[C@H]3CC[C@H](S(C)(=O)=O)CC3)nn2C)c(OC(F)F)c1)C(F)(F)F` [Example 151, 4-Chloro-5-(2-(difluoromethoxy)-4-((R)-3,3,3-trifluoro-2-methylpropyl)phenyl)-1-methyl-N-(((1r,4R)-4-(methylsulfonyl)cyclohexyl)methyl)-1H-pyrazole-3-carboxamide]: in assay [1] (setting [3]), the Kd stood at 1.6 nM. Moreover, the inhibition at 1 µM in assay [2] (setting [4]) came out at 92%. The IC50 in assay [2] (setting [5]) came to 23 nM.
Consider `CCn1nc(C(=O)NC[C@H]2CC[C@H](S(C)(=O)=O)CC2)c(Cl)c1-c1ccc(CC(C(F)(F)F)C(F)(F)F)cc1OC` [Example 84, 4-Chloro-1-ethyl-5-(2-methoxy-4-(3,3,3-trifluoro-2-(trifluoromethyl)propyl)phenyl)-N-(((1r,4r)-4-(methylsulfonyl)cyclohexyl)methyl)-1H-pyrazole-3-carboxamide], for which, in assay [1] (setting [3]), the Kd amounted to 0.7 nM. The inhibition at 0.67 µM in assay [2] (setting [4]) came to 87%. For the same compound, the midpoint of inhibition in assay [2] (setting [5]), the IC50, lay at 10 nM.
For `CCn1nc(C(=O)NC[C@]2(C(N)=O)CC[C@@H](S(C)(=O)=O)CC2)c(Cl)c1-c1ccc(N[C@H](C)C(F)(F)F)cc1OC` [Example 35, N-(((1s,4S)-1-carbamoyl-4-(methylsulfonyl)cyclohexyl)methyl)-4-chloro-1-ethyl-5-(2-methoxy-4-(((R)-1,1,1-trifluoropropan-2-yl)amino)phenyl)-1H-pyrazole-3-carboxamide], the Kd in assay [1] (setting [3]) amounted to 34 nM. For the same compound, in assay [2] (HEK-293T, read-out: RORγt (FL) Reporter Assay A or B, % inhibition @ 6 μM, 6 μM compound concentration), the inhibition at 6 µM stood at 102%. In assay [2] (setting [5]), this compound came in with an IC50 of 730 nM.
Regarding `CC(C)(Cc1ccc(-c2c(Cl)c(C(=O)NC[C@]3(O)CC[C@@H](S(C)(=O)=O)CC3)nn2CCCC#N)c(OC(F)F)c1)C(F)(F)F` [Example 229, 4-Chloro-1-(3-cyanopropyl)-5-(2-(difluoromethoxy)-4-(3,3,3-trifluoro-2,2-dimethylpropyl)phenyl)-N-(((1s,4s)-1-hydroxy-4-(methylsulfonyl)cyclohexyl)methyl)-1H-pyrazole-3-carboxamide], the equilibrium dissociation constant (Kd) in assay [1] (setting [3]) worked out at 3.1 nM. Further, the inhibition at 3 µM in assay [2] (setting [7]) was found to be 78%. The same compound showed an IC50 in assay [2] (setting [5]) of 9 nM.
`CCc1c(C(=O)NC[C@H]2CC[C@H](S(C)(=O)=O)CC2)nn(CC)c1-c1ccc(N[C@H](C)C(F)(F)F)cc1OC` [Example 130, 1,4-Diethyl-5-(2-methoxy-4-(((R)-1,1,1-trifluoropropan-2-yl)amino)phenyl)-N-(((r,4R)-4-(methylsulfonyl)cyclohexyl)methyl)-1H-pyrazole-3-carboxamide]: the Kd in assay [1] (setting [3]) was found to be 9.9 nM. In addition, the inhibition at 2 µM in assay [2] (setting [4]) was 100%. Besides, half-maximal inhibition in assay [2] (setting [5]) (IC50) required 61 nM.
As to `CCn1nc(C(=O)NC[C@H]2CC[C@H](S(=O)(=O)NC(=O)NC)CC2)c(Cl)c1-c1ccc(CC(C)(C)C(F)(F)F)cc1OC(F)F` [Example 71, 4-Chloro-5-(2-(difluoromethoxy)-4-(3,3,3-trifluoro-2,2-dimethylpropyl)phenyl)-1-ethyl-N-(((1r,4r)-4-(N-(methylcarbamoyl)sulfamoyl)cyclohexyl)methyl)-1H-pyrazole-3-carboxamide], the Kd in assay [1] (setting [3]) came to 0.23 nM. Also, in assay [2] (3 μM compound concentration (footnote *)), the “RORγt (FL) Reporter Assay A or B, % inhibition” value is 114* %. Besides, in assay [2] (setting [6]), the 50% inhibitory concentration (IC50) was 13 nM.
